Positions of bridges follow the written chain, without caps; N, C: chain ends.
Tests used:
[1] = test system: mice with nephrotoxic serum nephritis; assay: Nephrotoxic serum nephritis (NTN) in CD1 mice; assay type: in vivo
Description: FIG. 59A-FIG. 59M AA-123 Reverses Renal Fibrosis in Mice with Nephrotoxic Serum Nephritis. FIG. 59A-FIG. 59D. Representative Masson's trichrome staining picture of kidney sections from untreated control mice (FIG. 59A); 6 weeks NTN (FIG. 59B); 9 weeks post NTN (FIG. 59C); and 9 weeks NTN with THR-123 administered starting at 6 weeks NTN (FIG. 59D), Original magnification ×200. FIG. 59E-FIG. 59G. Morphometric analysis from control mice (0 weeks) (n=5), mice after 1 (n=6), 3 (n=8), and 6 weeks following induction of NTN (n=6), and mice at 9 weeks NTN with THR-123 administered starting 6 weeks NTN (THR-123 (6-9W) (n=6)), assessing percent of glomerulosclerosis score (FIG. 59E), tubular atrophy index (FIG. 59F), and fibrosis index (FIG. 59G). FIG. 59H. Blood Urea Nitrogen measurement for mice 6 weeks NTN (n=3), 9 weeks NTN (n=5), and 9 weeks NTN with THR-123 administered starting at 6 weeks NTN (n=5) FIG. 59I-FIG. 59L. E-cadherin/FSP1 immunolabeling of kidney from control untreated mice (FIG. 59I), 6 weeks NTN (FIG. 59J), 9 weeks NTN (FIG. 59K), and 9 weeks NTN with THR-123 administered starting at 6 weeks NTN (FIG. 59L). Representative results are shown. FIG. 59M. Percent of E-cadherin/FSP1 double positive tubule was assessed by counting the number of double-labeled tubules, 500 tubules per slide, 5 slides per experimental group. Data are expressed as mean±s.e.m. in the graph.
NTN is induced in C57BL6 mice by pre-immunizing with a subcutaneous injection of normal sheep IgG (200 μg) in complete Freund's adjuvant (day 1) followed by intravenous injection of nephrotoxic serum injection (50 μl, from day 5 to day 7). Mice were sacrificed at 1, 3, 6, 9 weeks after induction of NTN. Total RNA was isolated from the kidney by Trizol/Invitrogen PureLink RNA Mini Kit for RNA extraction. Ten nanogram of total RNA was used for generating complementary cDNA using the TaqMan One-Step RT-PCR Master Mix (Applied Biosystems, Foster City, Calif.). Quantitative PCR was performed to analyze the gene expression profile of BMP7, BMP receptors Alk2, Alk-3, Alk6 and BMPR II, and to BMP-binding proteins chordin, criml, fibrillinl, follistatin, KCP, USAG1, gremlin and noggin are analyzed (Table: Primer Sequences (below)) using ABIprism 7000 (Applied Biosystems).
NTN is induced in CD1 mice by the method described above. Six weeks after NTN induction, THR-123 (p.o. 5 mg/Kg/day) are started until 9 weeks. Mice are sacrificed at week 1, week 3, week 6 and week 9.
For the analysis of glomerulosclerosis, 20 glomeruli per each mouse were randomly picked and each glomerulus was evaluated according to the following scale: no sclerosis 0, 0 to ¼ of a glomerular surface area was sclerosed 1, ¼ to ½ was sclerosed 2, ½ to ¾ was sclerosed 3 and more than ¾ was sclerosed or with crescent 4. A glomerulosclerosis score was calculated as an arithmetic mean of these numbers for each mouse. The glomerulosclerosis scores from all mice were arbitrarily divided into 4 groups; that is no disease, mild, moderate and severe. The percentage of mice with these 4 groups was calculated.
For tubular atrophy score, ten 200× visual fields were randomly selected for each slide and tubular atrophy was assessed according to the following scale: no atrophy 0, 0 to ¼ of a visual field was occupied by atrophied tubules 1, ¼ to ½ 2, ½ to ¾ 3 and more than ¾ 4. A tubular atrophy score was then calculated as an arithmetic mean of these numbers per each mouse. The tubular atrophy scores from all mice were arbitrarily divided into 4 groups; that is no disease, mild, moderate and severe. The percentage of mice with these 4 groups was calculated and shown on the graph.
For the analysis of interstitial fibrosis, ten 200× visual fields were also selected randomly for each Masson trichrome stained kidney section and interstitial fibrosis was evaluated according to the following scale: no fibrosis 0, 0 to ¼ of a visual field was affected by interstitial fibrosis 1, ¼ to ½ 2, ½ to ¾ 3 and more than ¾ 4. […]

[2] = Pharmacokinetics and tissue distribution of 125I-labeled THR-123; assay type: in vivo, Wistar rats
Description: FIG. 45A-FIG. 45G Pharmacokinetics of THR-123. FIG. 45A. BMP7 structure figure with the residue weights resulting from the analysis mapped on to it. FIG. 45B, FIG. 45C. Radio-ligand receptor binding assays specific for individual type I receptors, Alk-3 (FIG. 45B) and Alk-6 (FIG. 45C). Highly purified extra-cellular domain (ECD) of Alk-3 or Alk-6 (expressed as a fusion protein with Fc domain) served as a receptor. In each assay purified receptor was immobilized on each well and peptide analog or unlabeled BMP7 was added, followed by ^125I-labeled BMP7. Radiolabeled BMP7 complex was counted in an auto-gamma counter. Results were expressed as the mean±s.e.m. Unlabeled BMP7, which served as a positive control in both assays, gave linear dose-related response curves. FIG. 45D, FIG. 45E. Concentration of THR-123 in systemic circulation of Wistar rats following iv injection of THR-123 (^125I-Tyr) via the tail vein determined by total radioactivity measurement. […] FIG. 45F. Tissue distribution of ^125I-THR-123. Six hours after intravenous administration of ^125I labeled-THR-123 in rats at a dose of 6.25 mg/kg-body weight, tissues were harvested and analyzed by automatic gamma well counter. […] FIG. 45G. Oral administration of THR-123 and elimination of THR-123 from the body. Radioactivity of orally administrated ^125I labeled-THR-123 at a dose of 5 mg/kg body weight was localized in the kidney between 1 and 6 hours after administration and peaked at around 3 hours.
The persistence of THR-123 in systemic circulation was evaluated using iv-administered ^125I-labeled compound and following the radioactivity decay.

[3] = test system: Smad 1/5/8; assay: Smad 1/5/8 phosphorylation and nuclear translocation in HK-2 cells; assay type: cell-based, human
Procedure: Human renal proximal tubule epithelial cells (HK-2) were incubated in the presence (right panel) and absence (left panel) of THR-123. The cells were washed, and then incubated with the primary antibody against phospho Smad 1/5/8, followed by immunostaining with a fluorescently labeled secondary antibody. The significance of pSmad 1/5/8 in renal fibrosis is tied to BMP7 suppression of TGF-β-dependent profibrotic pathways, which are central to renal fibrotic injury. Specifically, BMP7 suppression of such TGF-β-dependent profibrotic pathways is mediated in part by the activation of downstream BMP target proteins, Smad 1, 5, and 8. (Manson S R et al., J. Urol. 85:2523-30, 2011).

(H)-CYFDDSSNVLCKKYRS-(OH) (H-CYFDDSSNVLCKKYRS-OH; disulfide 1-11; SMILES CC(C)C[C@@H]1NC(=O)[C@H](C(C)C)NC(=O)[C@H](CC(N)=O)NC(=O)[C@H](CO)NC(=O)[C@H](CO)NC(=O)[C@H](CC(=O)O)NC(=O)[C@H](CC(=O)O)NC(=O)[C@H](Cc2ccccc2)NC(=O)[C@H](Cc2ccc(O)cc2)NC(=O)[C@@H](N)CSSC[C@@H](C(=O)N[C@@H](CCCCN)C(=O)N[C@@H](CCCCN)C(=O)N[C@@H](Cc2ccc(O)cc2)C(=O)N[C@@H](CCCNC(=N)N)C(=O)N[C@@H](CO)C(=O)O)NC1=O) [SEQ ID NO: 1]
glomerular lesion (sclerosis), tubular atrophy and fibrosis ([1]; THR-123 p.o. 5 mg/Kg/day from week 6 to 9): improved glomerular lesion (sclerosis) and tubular atrophy and fibrosis
Mac-1 positive macrophage accumulation ([1]; week 6 to 9 treatment): inhibited accumulation of macrophage
blood urea nitrogen ([1]; week 6 to 9 treatment): decreased
cells exhibiting an EMT program (FSP-1 and E-cadherin positive) ([1]; week 6 to 9 treatment): significantly decreased the number of cells exhibiting an EMT program
expression of fibronectin and type I collagen ([1]; week 6 to 9 treatment): decreased expression of matrix components such as fibronectin and type I collagen
phospho-smad1/5 accumulation ([1]; week 6 to 9 treatment): increased accumulation of phospho-Smad1/5
share of the injected dose in the beta phase ([2]; iv): 10%
alpha phase half-life ([2]; iv, 125I-labeled): very short half-life
beta phase half-life ([2]; iv, 125I-labeled): 55 to 58 min
decrease of THR-123 levels in plasma and whole blood within 5 minutes ([2]; iv, 125I-labeled): ~90%
share of the injected dose in the alpha phase ([2]; iv, tail vein, total radioactivity): approximately 90%
clearance of radioactivity from the kidney ([2]; oral, 24 hours after administration): completely cleared
tissue distribution of radioactivity ([2]; six hours after iv 6.25 mg/kg, listed as THR-123, 6.25 mg/kg): majority of the radioactivity was still localized in the kidney and bladder
Smad 1/5/8 phosphorylation and nuclear translocation [3]: induces Smad 1/5/8 phosphorylation and nuclear translocation
